Experimental data published in ChEMBL document CHEMBL1201862, “PubChem BioAssay data set” (2004).
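Values below derive from 48-hour exposures of cells grown in 96-well plates, with endpoints linearly interpolated between the two concentrations bracketing the appropriate inhibition level. At the GI50, growth is halved.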 Active and inactive are the calls of the source. Rule as the data show it: active = GI50 up to about 1.1 µM and inactive = higher.

Legend:
Assay in all cases: DTP human tumour cell line panel, 48 h
[1] = system: COLO 205
[2] = system: KM12
[3] = system: HCT-116
[4] = system: HOP-92
[5] = system: Hs-578T
[6] = system: SN12C
[7] = system: NCI-H23
[8] = system: MDA-N
[9] = system: UO-31
[10] = system: SK-MEL-2
[11] = system: LOX IMVI
[12] = system: CAKI-1
[13] = system: NCI-H522
[14] = system: OVCAR-4
[15] = system: HT-29
[16] = system: UACC-62
[17] = system: SK-OV-3
[18] = system: RPMI-8226
[19] = system: SR

| SMILES | GI50 [1] | GI50 [2] | GI50 [3] | GI50 [4] | GI50 [5] | GI50 [6] | GI50 [7] | GI50 [8] | GI50 [9] | GI50 [10] | GI50 [11] | GI50 [12] | GI50 [13] | GI50 [14] | GI50 [15] | GI50 [16] | GI50 [17] | GI50 [18] | GI50 [19] |
| --- | --- | --- | --- | --- | --- | --- | --- | --- | --- | --- | --- | --- | --- | --- | --- | --- | --- | --- | --- |
| CC(=O)n1c(COS(C)(=O)=O)nc2ccccc21 | > 100 µM (inactive) | > 100 µM (inactive) | > 100 µM (inactive) | > 100 µM (inactive) | > 100 µM (inactive) | > 100 µM (inactive) | > 100 µM (inactive) | > 100 µM (inactive) | > 100 µM (inactive) | > 100 µM (inactive) | > 100 µM (inactive) | > 100 µM (inactive) | > 100 µM (inactive) | > 100 µM (inactive) | > 100 µM (inactive) | > 100 µM (inactive) |  |  |  |
| CCC(=O)CCC1=Nc2nnc(CCCCc3nnc4n3C(=O)C(CCC(=O)CC)=N4)n2C1=O | > 100 µM (inactive) | > 100 µM (inactive) |  | > 100 µM (inactive) |  | > 100 µM (inactive) | > 100 µM (inactive) |  | > 100 µM (inactive) | > 100 µM (inactive) | > 100 µM (inactive) | > 100 µM (inactive) | > 100 µM (inactive) | > 100 µM (inactive) | > 100 µM (inactive) | > 100 µM (inactive) | > 100 µM (inactive) | > 100 µM (inactive) |  |
| CCCCCCNCCCNc1c2cc(OC)ccc2nc2cccc([N+](=O)[O-])c12 | 0.139 µM (active) | 0.144 µM (active) | 0.036 µM (active) | 0.136 µM (active) | 0.299 µM (active) | 0.0787 µM (active) | 0.124 µM (active) |  | 0.188 µM (active) | 0.0764 µM (active) | 0.134 µM (active) | 0.211 µM (active) | < 0.0195 µM (active) | 0.113 µM (active) | 0.0326 µM (active) | 0.143 µM (active) | 0.627 µM (active) | < 0.0289 µM (active) | 0.0173 µM (active) |
| O=C(Cn1c(=O)oc2ccccc21)N(c1ccccc1)c1ccccc1 | > 100 µM (inactive) | > 100 µM (inactive) | > 100 µM (inactive) |  | 40.9 µM (inactive) | > 100 µM (inactive) | > 100 µM (inactive) | > 100 µM (inactive) | > 100 µM (inactive) | > 100 µM (inactive) | > 100 µM (inactive) | > 100 µM (inactive) |  |  | > 100 µM (inactive) | > 100 µM (inactive) | > 100 µM (inactive) | > 100 µM (inactive) | > 100 µM (inactive) |
| [O-][S+]1[C@H](c2ccccc2)c2c(-c3ccccc3)sc(-c3ccccc3)c2[C@@H]1c1ccccc1 (stereo not given in full) | 23.1 µM (inactive) | 12.5 µM (inactive) |  | 2.96 µM (inactive) |  | 25.3 µM (inactive) | 6.55 µM (inactive) |  | 65.6 µM (inactive) | 32.7 µM (inactive) | 94.8 µM (inactive) | 15.2 µM (inactive) | 3.23 µM (inactive) | 8.49 µM (inactive) | 41 µM (inactive) | 39.6 µM (inactive) | > 100 µM (inactive) | 6.04 µM (inactive) |  |
| CC(C)CCc1n[nH]c(=O)n1/N=C\c1ccccc1 | > 100 µM (inactive) | > 100 µM (inactive) | > 100 µM (inactive) | > 100 µM (inactive) | > 100 µM (inactive) | > 100 µM (inactive) | > 100 µM (inactive) | > 100 µM (inactive) | 26.4 µM (inactive) | 93.1 µM (inactive) | > 100 µM (inactive) | > 10 µM (inactive) | 85.7 µM (inactive) | > 100 µM (inactive) | > 100 µM (inactive) | > 100 µM (inactive) | > 100 µM (inactive) |  |  |
| N#Cc1c(-c2ccccc2)c(/N=N/c2ccc(Cl)cc2)c(=O)n2c1[nH]c1ccccc12 | > 100 µM (inactive) | 44.2 µM (inactive) | 31 µM (inactive) |  |  | > 100 µM (inactive) | > 100 µM (inactive) | > 100 µM (inactive) | 46.9 µM (inactive) | > 100 µM (inactive) | > 100 µM (inactive) | 24.3 µM (inactive) | 79.4 µM (inactive) | 15.7 µM (inactive) |  |  | 94.2 µM (inactive) | 39.9 µM (inactive) |  |
| O=C1CCCC2=C1CC1=C(CCCC1=O)N2c1ccc(Cl)cc1 | > 100 µM (inactive) | > 100 µM (inactive) | > 100 µM (inactive) |  | > 100 µM (inactive) | > 100 µM (inactive) | > 100 µM (inactive) | > 100 µM (inactive) | > 100 µM (inactive) |  | > 100 µM (inactive) | > 100 µM (inactive) |  | > 100 µM (inactive) | > 100 µM (inactive) | > 100 µM (inactive) | > 100 µM (inactive) | > 100 µM (inactive) | 50.1 µM (inactive) |
| CC1(C)CC[C@]2(C(=O)O)CC[C@]3(C)C(=CC[C@@H]4[C@@]5(C)CC[C@@H]6OC(C)(C)OC[C@@]6(C)[C@@H]5CC[C@]43C)[C@H]2C1 | 11.3 µM (inactive) |  | 5.33 µM (inactive) |  |  | 3.13 µM (inactive) | 3.91 µM (inactive) | 13.3 µM (inactive) | 12.1 µM (inactive) | 17.3 µM (inactive) | 4.8 µM (inactive) | 9.91 µM (inactive) | 7.71 µM (inactive) | 3.05 µM (inactive) | 4.54 µM (inactive) | 10.4 µM (inactive) | 17.1 µM (inactive) | 6 µM (inactive) | 10.1 µM (inactive) |
| COc1ccc(N2C(=O)c3cccnc3S2(=O)=O)cc1 | > 100 µM (inactive) | > 100 µM (inactive) | > 100 µM (inactive) | > 100 µM (inactive) |  | > 100 µM (inactive) | > 100 µM (inactive) | > 100 µM (inactive) | > 100 µM (inactive) | > 100 µM (inactive) |  | > 100 µM (inactive) | > 100 µM (inactive) | > 100 µM (inactive) | > 100 µM (inactive) | > 100 µM (inactive) | > 100 µM (inactive) | > 100 µM (inactive) | > 100 µM (inactive) |
| COc1cc(O)c2c(=O)c3c(C)cccc3n(C)c2c1 | > 10 µM (inactive) | > 10 µM (inactive) | > 10 µM (inactive) | > 10 µM (inactive) | > 10 µM (inactive) | > 10 µM (inactive) | > 10 µM (inactive) | > 10 µM (inactive) | > 10 µM (inactive) | > 10 µM (inactive) | > 10 µM (inactive) | > 10 µM (inactive) | > 10 µM (inactive) | > 10 µM (inactive) | > 10 µM (inactive) | > 10 µM (inactive) | > 10 µM (inactive) | > 10 µM (inactive) |  |
| COc1ccc(CN(Cc2ccc(OC)cc2)C(=O)CC2(O)CCc3ccccc3C2)cc1 (stereo not given) | 21.8 µM (inactive) | 26 µM (inactive) | 38 µM (inactive) | > 100 µM (inactive) | 40.3 µM (inactive) | > 100 µM (inactive) | > 100 µM (inactive) |  | 15.1 µM (inactive) | 60 µM (inactive) | 52.4 µM (inactive) | 43.2 µM (inactive) | 24 µM (inactive) | 57 µM (inactive) | 37.4 µM (inactive) | 50.9 µM (inactive) | > 100 µM (inactive) | 62.2 µM (inactive) | 16 µM (inactive) |
| C=CCC1C(=O)C(C(=O)OC)N2CCc3c([nH]c4ccccc34)C12 (stereo not given) | > 100 µM (inactive) | > 100 µM (inactive) | > 100 µM (inactive) | 57.4 µM (inactive) |  | > 100 µM (inactive) | > 100 µM (inactive) |  | > 100 µM (inactive) | > 100 µM (inactive) |  | > 100 µM (inactive) | 80 µM (inactive) | > 100 µM (inactive) | > 100 µM (inactive) | > 100 µM (inactive) | > 100 µM (inactive) | 59.2 µM (inactive) | 61.1 µM (inactive) |
| CC(=O)n1[nH]c(=O)n(-c2ccc(Cl)cc2)c1=O | > 100 µM (inactive) | > 100 µM (inactive) | > 100 µM (inactive) |  |  | > 100 µM (inactive) | > 100 µM (inactive) | > 100 µM (inactive) | > 100 µM (inactive) | > 100 µM (inactive) | > 100 µM (inactive) | > 100 µM (inactive) | > 100 µM (inactive) | > 100 µM (inactive) | > 100 µM (inactive) | > 100 µM (inactive) | > 100 µM (inactive) | > 100 µM (inactive) | > 100 µM (inactive) |
| O=C1C2=C(c3ccccc31)C(c1ccccc1Cl)N1C(=O)CSC1=N2 (stereo not given) | > 100 µM (inactive) | > 100 µM (inactive) | 87.3 µM (inactive) | 32.5 µM (inactive) |  | > 100 µM (inactive) | 85.7 µM (inactive) |  | 54 µM (inactive) | > 100 µM (inactive) | > 100 µM (inactive) | > 100 µM (inactive) | 23.8 µM (inactive) | 60.1 µM (inactive) | > 100 µM (inactive) | 59.4 µM (inactive) | > 100 µM (inactive) | 39.8 µM (inactive) |  |
| COc1ccc(CC(=O)NCCc2ccc(OC)c(OC)c2)cc1Br | > 100 µM (inactive) | > 100 µM (inactive) |  | > 100 µM (inactive) |  | > 100 µM (inactive) | > 100 µM (inactive) |  | > 100 µM (inactive) | > 100 µM (inactive) | > 100 µM (inactive) | > 100 µM (inactive) | > 100 µM (inactive) | > 100 µM (inactive) | > 100 µM (inactive) | 62.1 µM (inactive) | > 100 µM (inactive) |  | > 100 µM (inactive) |
